Measured values as given in PMC10893631, “Receptor-based pharmacophore modeling, molecular docking, synthesis and biological evaluation of novel VEGFR-2, FGFR-1, and BRAF multi-kinase inhibitors” (BMC Chemistry, 2024).

Experiments:
Assay in all cases: NCI SRB growth inhibition (single dose 10 µM / five-dose)
Assay type in all cases: cell-based, human
786–0 = conditions: Homo sapiens; for inhibition at 10 µM: 786–0 (Renal cancer), read-out: GI%
Summary of the method: (§1)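 Percent growth relative to untreated control and time-zero cell mass, determined by SRB. Five drug levels (10-fold or half-log steps) plus control; time-zero plates fixed 24 h after seeding.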

A498 = conditions: Homo sapiens; for inhibition at 10 µM: A498 (Renal cancer), read-out: GI%
Summary of the method: as §1

A549/ATCC = conditions: Homo sapiens; for inhibition at 10 µM: A549/ATCC (Non-small cell lung cancer), read-out: GI%
Summary of the method: as §1

ACHN = conditions: Homo sapiens; for inhibition at 10 µM: ACHN (Renal cancer), read-out: GI%
Summary of the method: as §1

BT-549 = conditions: Homo sapiens; for inhibition at 10 µM: BT-549 (Breast cancer), read-out: GI%
Summary of the method: as §1

CAKI-1 = conditions: Homo sapiens; for inhibition at 10 µM: CAKI-1 (Renal cancer), read-out: GI%
Summary of the method: as §1

CCRF-CEM = conditions: Homo sapiens; for inhibition at 10 µM: CCRF-CEM (Leukemia), read-out: GI%
Summary of the method: as §1

COLO 205 = conditions: Homo sapiens
Summary of the method: as §1

HCT-116 = conditions: Homo sapiens, HCT-116; for inhibition at 10 µM: read-out: GI%
Summary of the method: as §1

HCT-15 = conditions: Homo sapiens; for inhibition at 10 µM: HCT-15 (Colon cancer), read-out: GI%
Summary of the method: as §1

HS 578 T = conditions: Homo sapiens; for inhibition at 10 µM: HS 578 T (Breast cancer), read-out: GI%
Summary of the method: as §1

IGROV1 = conditions: Homo sapiens, IGROV-1; for inhibition at 10 µM: IGROV1 (Ovarian cancer), read-out: GI%
Summary of the method: as §1

K-562 = conditions: Homo sapiens, K562; for inhibition at 10 µM: K-562 (Leukemia), read-out: GI%
Summary of the method: as §1

KM12 = conditions: Homo sapiens; for inhibition at 10 µM: KM12 (Colon cancer), read-out: GI%
Summary of the method: as §1

MALME-3 M = conditions: Homo sapiens; for inhibition at 10 µM: MALME-3 M (Melanoma), read-out: GI%
Summary of the method: as §1

MDA-MB-231/ATCC = conditions: Homo sapiens; for inhibition at 10 µM: MDA-MB-231/ATCC (Breast cancer), read-out: GI%
Summary of the method: as §1

MDA-MB-435 = conditions: Homo sapiens; for inhibition at 10 µM: MDA-MB-435 (Melanoma), read-out: GI%
Summary of the method: as §1

NCI/ADR-RES = conditions: Homo sapiens; for inhibition at 10 µM: NCI/ADR-RES (Ovarian cancer), read-out: GI%
Summary of the method: as §1

OVCAR-4 = conditions: Homo sapiens; for inhibition at 10 µM: OVCAR-4 (Ovarian cancer), read-out: GI%
Summary of the method: as §1

OVCAR-8 = conditions: Homo sapiens; for inhibition at 10 µM: OVCAR-8 (Ovarian cancer), read-out: GI%
Summary of the method: as §1

RXF 393 = conditions: Homo sapiens; for inhibition at 10 µM: RXF 393 (Renal cancer), read-out: GI%
Summary of the method: as §1

SK-MEL-28 = conditions: Homo sapiens; for inhibition at 10 µM: SK-MEL-28 (Melanoma), read-out: GI%
Summary of the method: as §1

SK-MEL-2 = conditions: Homo sapiens; for inhibition at 10 µM: SK-MEL-2 (Melanoma), read-out: GI%
Summary of the method: as §1

SK-OV-3 = conditions: Homo sapiens
Summary of the method: as §1

SNB-75 = conditions: Homo sapiens; SNB-75 (CNS cancer), 10 µM; read-out: GI%
Summary of the method: as §1

UACC-257 = conditions: Homo sapiens; for inhibition at 10 µM: UACC-257 (Melanoma), read-out: GI%
Summary of the method: as §1

COc1cccc(C=NNC(=O)c2ccc3[nH]c(-c4ccccc4)nc3c2)c1O [8d, N'-(2-hydroxy-3-methoxybenzylidene)-2-phenyl-1H-benzo[d]imidazole-5-carbohydrazide]
inhibition at 10 µM (786–0): 86% | GI50 (786–0; 786–0, Renal cancer, five-dose): 2470 nM | inhibition at 10 µM (A498): < 5% | GI50 (A498; A498, Renal cancer, five-dose): 36.6 µM | inhibition at 10 µM (A549/ATCC): 79.8% | GI50 (A549/ATCC; A549/ATCC, Non-small cell lung cancer, five-dose): 3.39 µM | inhibition at 10 µM (ACHN): 83.3% | GI50 (ACHN; ACHN, Renal cancer, five-dose): 2280 nM | inhibition at 10 µM (BT-549): 96.6% | GI50 (BT-549; BT-549, Breast cancer, five-dose): 1520 nM | inhibition at 10 µM (CAKI-1): 91.6% | GI50 (CAKI-1; CAKI-1, Renal cancer, five-dose): 2680 nM | inhibition at 10 µM (CCRF-CEM): > 100% | GI50 (CCRF-CEM; CCRF-CEM, Leukemia, five-dose): 300 nM | GI50 (COLO 205; COLO 205, Colon cancer, five-dose): 2340 nM | GI50 (HCT-116): 1840 nM | inhibition at 10 µM (HCT-116): 97.4% | inhibition at 10 µM (HCT-15): 71.6% | GI50 (HCT-15; HCT-15, Colon cancer, five-dose): 2070 nM | inhibition at 10 µM (HS 578 T): 92.9% | GI50 (HS 578 T; HS 578 T, Breast cancer, five-dose): 620 nM | inhibition at 10 µM (IGROV1): 79.9% | GI50 (IGROV1; IGROV1, Ovarian cancer, five-dose): 2340 nM | inhibition at 10 µM (K-562): 60.9% | GI50 (K-562; K-562, Leukemia, five-dose): 2040 nM | inhibition at 10 µM (KM12): > 100% | GI50 (KM12; KM12, Colon cancer, five-dose): 2580 nM | inhibition at 10 µM (MALME-3 M): > 100% | GI50 (MALME-3 M; MALME-3 M, Melanoma, five-dose): 1370 nM | inhibition at 10 µM (MDA-MB-231/ATCC): 94.4% | GI50 (MDA-MB-231/ATCC; MDA-MB-231/ATCC, Breast cancer, five-dose): 2410 nM | inhibition at 10 µM (MDA-MB-435): 74.6% | GI50 (MDA-MB-435; MDA-MB-435, Melanoma, five-dose): 4.69 µM | inhibition at 10 µM (NCI/ADR-RES): 48% | GI50 (NCI/ADR-RES; NCI/ADR-RES, Ovarian cancer, five-dose): 4.65 µM | inhibition at 10 µM (OVCAR-4): > 100% | GI50 (OVCAR-4; OVCAR-4, Ovarian cancer, five-dose): 1850 nM | inhibition at 10 µM (OVCAR-8): > 100% | GI50 (OVCAR-8; OVCAR-8, Ovarian cancer, five-dose): 1620 nM | inhibition at 10 µM (RXF 393): 86% | GI50 (RXF 393; RXF 393, Renal cancer, five-dose): 3.21 µM | inhibition at 10 µM (SK-MEL-28): 96.2% | GI50 (SK-MEL-28; SK-MEL-28, Melanoma, five-dose): 1780 nM | inhibition at 10 µM (SK-MEL-2): 34.3% | GI50 (SK-MEL-2; SK-MEL-2, Melanoma, five-dose): 1640 nM | GI50 (SK-OV-3; SK-OV-3, Ovarian cancer, five-dose): 2560 nM | inhibition at 10 µM (SNB-75): 99.2% | inhibition at 10 µM (UACC-257): > 100% | GI50 (UACC-257; UACC-257, Melanoma, five-dose): 2340 nM

COc1ccc(C=NNC(=O)c2ccc3[nH]c(-c4ccccc4)nc3c2)cc1O [8e, N'-(3-Hydroxy-4-methoxybenzylidene)-2-phenyl-1H-benzo[d]imidazole-5-carbohydrazide]
inhibition at 10 µM (786–0): 16.6% | inhibition at 10 µM (A498): < 5% | inhibition at 10 µM (A549/ATCC): < 5% | inhibition at 10 µM (ACHN): < 5% | inhibition at 10 µM (BT-549): < 5% | inhibition at 10 µM (CAKI-1): 17.6% | inhibition at 10 µM (CCRF-CEM): 35.9% | inhibition at 10 µM (COLO 205; COLO 205 (Colon cancer), 10 µM, read-out: GI%): 35.4% | inhibition at 10 µM (HCT-116): 15% | inhibition at 10 µM (HCT-15): < 5% | inhibition at 10 µM (HS 578 T): 6.89% | inhibition at 10 µM (IGROV1): 22% | inhibition at 10 µM (K-562): 26.2% | inhibition at 10 µM (KM12): 21.9% | inhibition at 10 µM (MALME-3 M): 78.4% | inhibition at 10 µM (MDA-MB-231/ATCC): < 5% | inhibition at 10 µM (MDA-MB-435): 30.4% | inhibition at 10 µM (NCI/ADR-RES): < 5% | inhibition at 10 µM (OVCAR-4): < 5% | inhibition at 10 µM (OVCAR-8): 25.2% | inhibition at 10 µM (RXF 393): < 5% | inhibition at 10 µM (SK-MEL-28): 28.9% | inhibition at 10 µM (SK-MEL-2): 8.51% | inhibition at 10 µM (SK-OV-3; SK-OV-3 (Ovarian cancer), 10 µM, read-out: GI%): 56.3% | inhibition at 10 µM (SNB-75): < 5% | inhibition at 10 µM (UACC-257): 13.8%
